Source: US20050137230A1, “Carboxamide derivatives” (priority 2000, published 2005)

Columns and labels:
[1] = target: factor Xa (Homo sapiens, UniProt P00742); assay: inhibition of factor Xa; type: biochemical
Description: The inhibition of factor Xa by the compounds according to the invention and the measurement of the anticoagulant and antithrombotic activity can be determined by conventional in-vitro or in-vivo methods. A suitable method is described, for example, by J. Hauptmann et al. in Thrombosis and Haemostasis 1990, 63, 220-223.
The inhibition of factor Xa can be measured, for example, by the method of T. Hara et al. in Thromb. Haemostas. 1994, 71, 314-319.

[2] = target: T1, factor VIIa (Homo sapiens, UniProt P08709); assay: inhibition of factor VIIa; type: biochemical
T1 sequence (P08709 213-466 limits assumed): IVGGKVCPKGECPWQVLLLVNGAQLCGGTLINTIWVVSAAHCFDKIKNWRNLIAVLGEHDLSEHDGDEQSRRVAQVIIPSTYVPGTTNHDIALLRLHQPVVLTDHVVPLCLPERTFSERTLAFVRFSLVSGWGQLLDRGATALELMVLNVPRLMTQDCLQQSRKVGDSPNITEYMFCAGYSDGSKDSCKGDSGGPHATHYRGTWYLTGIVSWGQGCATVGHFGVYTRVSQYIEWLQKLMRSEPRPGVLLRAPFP
T1 sequence (P08709 61-212 partner limits assumed): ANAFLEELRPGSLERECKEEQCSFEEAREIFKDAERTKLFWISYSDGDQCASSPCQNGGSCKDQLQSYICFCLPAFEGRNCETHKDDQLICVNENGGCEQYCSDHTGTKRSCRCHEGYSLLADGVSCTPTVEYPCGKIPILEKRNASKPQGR
Description: The inhibition of factor VIIa by the compounds according to the invention and the measurement of the anticoagulant and antithrombotic activity can be determined by conventional in-vitro or in-vivo methods. A conventional method for the measurement of the inhibition of factor VIIa is described, for example, by H. F. Ronning et al. in Thrombosis Research 1996, 84, 73-81.

Sequence of factor Xa (P00742 235-488 limits assumed): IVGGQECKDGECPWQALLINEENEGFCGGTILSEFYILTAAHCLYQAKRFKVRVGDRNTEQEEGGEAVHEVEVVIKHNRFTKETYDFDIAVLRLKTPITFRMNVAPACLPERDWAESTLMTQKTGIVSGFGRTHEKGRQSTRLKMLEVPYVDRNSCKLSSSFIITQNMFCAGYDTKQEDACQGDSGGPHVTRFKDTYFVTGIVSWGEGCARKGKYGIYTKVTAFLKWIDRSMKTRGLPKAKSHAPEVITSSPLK
Sequence of factor Xa (P00742 41-179 partner limits assumed): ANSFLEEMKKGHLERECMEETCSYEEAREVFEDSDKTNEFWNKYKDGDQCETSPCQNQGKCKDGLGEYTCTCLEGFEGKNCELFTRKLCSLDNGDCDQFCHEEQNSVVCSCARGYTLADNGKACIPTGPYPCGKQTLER

Compound | IC50 [1] [nM] | IC50 [2] [nM]
CS(=O)(=O)c1ccccc1-c1ccc(NC(=O)[C@@H](Cc2ccccc2)NC(=O)Nc2ccc(Cl)cc2)cc1 [(R)-2-[3-(4-chlorophenyl)ureido]-N-(2′-methylsulfonylbiphenyl-4-yl)-3-phenylpropionamide] | 86 | 65
CC(C)C[C@@H](NC(=O)Nc1ccc(Cl)cc1)C(=O)NCC1CCN(c2ccncc2)CC1 [(R)-2-[3-(4-chlorophenyl)ureido]-N-[1-(pyridin-4-yl)piperidin-4-ylmethyl]-4-methylvaleramide] | 410 | 
CCCC[C@@H](NC(=O)Nc1ccccc1)C(=O)Nc1ccc(-c2ccccc2S(C)(=O)=O)cc1 [(R)-2-(3-phenylureido)-N-(2′-methylsulfonylbiphenyl-4-yl)hexanoamide] | 3000 | 170
O=C(Nc1ccc(Cl)cc1)OC(C(=O)NCC1CCN(c2ccncc2)CC1)c1ccccc1 (centres unmarked) [2-[N-(4-chlorophenyl)-carbamoyloxy]-N-[1-(pyridin-4-yl)piperidin-4-ylmethyl]-2-phenylacetamide] | 71 | 
CCCC(NC(=O)Nc1ccc(Cl)cc1)C(=O)NCC1CCN(c2ccncc2)CC1 (centres unmarked) [2-[3-(4-chlorophenyl)ureido]-N-[1-(pyridin-4-yl)piperidin-4-ylmethyl]-valeramide] | 580 | 
CS(=O)(=O)c1ccccc1-c1ccc(NC(=O)C(NC(=O)Nc2ccccc2)c2ccccc2)cc1 (centres unmarked) [2-(3-phenylureido)-N-(2′-methylsulfonylbiphenyl-4-yl)-2-phenyl-acetamide] | 2300 | 2000
CCC[C@H](NC(=O)Nc1ccccn1)C(=O)Nc1ccc(-c2ccccc2S(C)(=O)=O)cc1 [(S)-2-(3-pyridin-2-ylureido)-N-(2′-methylsulfonylbiphenyl-4-yl)-pentanoamide] | 3800 | 2700
CS(=O)(=O)c1ccccc1-c1ccc(NC(=O)C(Cc2cccs2)NC(=O)Nc2ccccc2)cc1 (centres unmarked) [2-(3-phenylureido)-N-(2′-methylsulfonylbiphenyl-4-yl)-3-(thiophen-2-yl)-propionamide] | 1200 | 750
O=C(Nc1ccc(Cl)cc1)N[C@@H](C(=O)NCC1CCN(c2ccncc2)CC1)c1ccccc1 [(R)-2-[3-(4-chlorophenyl)ureido]-N-[1-(pyridin-4-yl)piperidin-4-ylmethyl]-2-phenylacetamide] | 55 | 
CS(=O)(=O)c1ccccc1-c1ccc(NC(=O)C(Cc2cnc[nH]2)NC(=O)Nc2ccccc2)cc1 (centres unmarked) [2-(3-phenylureido)-N-(2′-methylsulfonylbiphenyl-4-yl)-3-(3H-imidazol-4-yl)propionamide] | 2000 | 2000
CCC[C@@H](NC(=O)Nc1ccccc1)C(=O)Nc1ccc(-c2ccccc2S(C)(=O)=O)cc1 [(R)-2-(3-phenylureido)-N-(2′-methylsulfonylbiphenyl-4-yl)pentanoamide] | 2000 | 930
CSCCC(NC(=O)Nc1ccccc1)C(=O)Nc1ccc(-c2ccccc2S(C)(=O)=O)cc1 (centres unmarked) [2-(3-phenylureido)-N-(2′-methylsulfonylbiphenyl-4-yl)-4-methylsulfanylbutyramide] | 2300 | 1800
